{
  "source": "patent US20240174679A1",
  "about": "“HETEROAROYL AMIDES AS LRRK2 INHIBITORS, PHARMACEUTICAL COMPOSITIONS, AND USES THEREOF” (MERCK SHARP & DOHME LLC, priority 2021, published 2024)",
  "data": [
    {"target": "GST tagged truncated human mutant G2019S LRRK2 (Homo sapiens (Human), UniProt Q5S007, G2019S)", "sequence (Q5S007 970-2527 G2019S)": "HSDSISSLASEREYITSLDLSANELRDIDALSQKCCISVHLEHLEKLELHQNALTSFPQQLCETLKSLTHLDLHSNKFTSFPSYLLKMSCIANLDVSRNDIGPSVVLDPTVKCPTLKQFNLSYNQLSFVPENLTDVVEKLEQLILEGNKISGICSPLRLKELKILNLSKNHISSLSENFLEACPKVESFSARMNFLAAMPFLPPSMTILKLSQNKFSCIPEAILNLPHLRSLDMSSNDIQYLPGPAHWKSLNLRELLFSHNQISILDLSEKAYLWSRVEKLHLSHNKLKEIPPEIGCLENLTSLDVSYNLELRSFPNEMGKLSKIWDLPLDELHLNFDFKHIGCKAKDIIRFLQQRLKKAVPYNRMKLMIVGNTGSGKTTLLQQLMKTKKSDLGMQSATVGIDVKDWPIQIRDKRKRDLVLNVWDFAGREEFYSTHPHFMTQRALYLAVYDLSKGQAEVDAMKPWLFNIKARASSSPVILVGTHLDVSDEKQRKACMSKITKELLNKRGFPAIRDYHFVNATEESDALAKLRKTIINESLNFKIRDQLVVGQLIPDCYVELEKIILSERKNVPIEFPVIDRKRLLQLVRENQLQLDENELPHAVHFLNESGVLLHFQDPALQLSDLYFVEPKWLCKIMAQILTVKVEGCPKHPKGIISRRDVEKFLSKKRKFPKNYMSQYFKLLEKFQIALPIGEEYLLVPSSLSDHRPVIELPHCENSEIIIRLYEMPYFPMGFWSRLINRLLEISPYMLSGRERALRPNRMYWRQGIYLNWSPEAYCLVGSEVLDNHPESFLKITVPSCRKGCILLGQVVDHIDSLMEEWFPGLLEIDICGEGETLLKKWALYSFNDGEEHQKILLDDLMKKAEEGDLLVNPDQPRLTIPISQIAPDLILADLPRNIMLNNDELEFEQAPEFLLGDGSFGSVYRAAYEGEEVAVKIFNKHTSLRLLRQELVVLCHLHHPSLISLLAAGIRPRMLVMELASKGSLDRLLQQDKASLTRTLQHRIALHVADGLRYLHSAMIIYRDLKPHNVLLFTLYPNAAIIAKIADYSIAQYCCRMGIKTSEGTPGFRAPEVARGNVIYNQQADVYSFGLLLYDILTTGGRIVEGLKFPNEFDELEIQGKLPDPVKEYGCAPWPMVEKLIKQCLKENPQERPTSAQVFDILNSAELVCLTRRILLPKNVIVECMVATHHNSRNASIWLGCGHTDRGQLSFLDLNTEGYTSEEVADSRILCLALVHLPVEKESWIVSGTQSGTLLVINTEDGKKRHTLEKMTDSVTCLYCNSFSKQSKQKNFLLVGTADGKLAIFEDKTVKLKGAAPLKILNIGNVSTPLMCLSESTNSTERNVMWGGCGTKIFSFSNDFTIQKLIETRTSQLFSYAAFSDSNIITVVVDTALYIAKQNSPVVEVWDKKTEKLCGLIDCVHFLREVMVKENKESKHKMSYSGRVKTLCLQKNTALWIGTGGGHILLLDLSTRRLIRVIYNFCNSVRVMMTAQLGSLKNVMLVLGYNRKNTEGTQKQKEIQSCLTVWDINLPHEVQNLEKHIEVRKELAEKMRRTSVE", "experiment": "LRRK2 Km ATP LanthaScreen Assay", "assay_type": "biochemical", "settings": "134 μM ATP (Km ATP), LRRKtide substrate, negative log of mean IC50 (molar)", "experimental": "(§1) Unless otherwise noted, all reactions are magnetically stirred. Unless otherwise noted, when diethyl ether is used in the experiments described below, it is Fisher ACS certified material and is stabilized with BHT. Unless otherwise noted, “concentrated” and/or “solvent removed under reduced pressure” means evaporating the solvent from a solution or mixture using a rotary evaporator or vacuum pump. Unless otherwise noted, flash chromatography is carried out on a Teledyne Isco (Lincoln, NE), Analogix (Burlington, WI), or Biotage (Stockholm, SWE) automated chromatography system using a commercially available cartridge as the column. Columns may be purchased from Teledyne Isco, Analogix, Biotage, Varian (Palo Alto, CA), or Supelco (Bellefonte, PA) and are usually filled with silica gel as the stationary phase. Reversed phase preparative HPLC conditions, where used, can be found at the end of each experimental section. Aqueous solutions were concentrated on a Genevac (Ipswich, ENG) or by freeze-drying/lyophilization. Unless otherwise noted, all LRRK2 pIC50 data presented in tables refers to the LRRK2 G2019S Km ATP LanthaScreen™ assay (Life Technologies Corp., Carlsbad, CA) that is described in the Biological Assay section.\n(§2) Biological Assay: LRRK2 Km ATP LanthaScreen™ Assay\n(§3) Compound potency against LRRK2 kinase activity was determined using LanthaScreen™ technology from Life Technologies Corporation (Carlsbad, CA) using a GST20 tagged truncated human mutant G2019S LRRK2 in the presence of the fluorescein-labeled peptide substrate LRRKtide® (LRRK2 phosphorylated ezrin/radixin/moesin (ERM)), also from Life Technologies. The data presented for the Km ATP LanthaScreen™ Assay represents mean IC50 values based on several test results and may have reasonable deviations depending on the specific conditions and reagents used. Km is the Michaelis constant of an enzyme and is defined as the concentration of native substrate (ATP for a kinase) which permits the enzyme to achieve half Vmax (Vmax=rate of reaction when the enzyme is saturated with substrate). IC50 (half-maximal inhibitory concentration) represents the concentration of inhibitor required to inhibit LRRK2 kinase activity by 50%. Assays were performed in the presence of 134 μM ATP (Km ATP). Upon completion, the assay was stopped, and phosphorylated substrate detected with a terbium (Tb)-labeled anti-pERM antibody (cat. no. PV4898). The compound dose response was prepared by diluting a 10 mM stock of compound to a maximum concentration of 9.99 μM in 100% DMSO, followed by custom fold serial dilution in DMSO nine times. 20 nL of each dilution was spotted via a Labcyte Echo onto a 384-well black-sided plate (Corning 3575) followed by 15 μL of a 1.25 nM enzyme solution in 1× assay buffer (50 mM Tris pH 8.5, 10 mM MgCl2, 0.01% Brij-35, 1 mM EGTA, 2 mM dithiothreitol, 0.05 mM sodium orthovanadate). Following a 15-min incubation period at rt, the kinase reaction was started with the addition of 5 μL of 400 nM fluorescein-labeled LRRKtide® (LRRK2 phosphorylated ezrin/radixin/moesin (ERM)) peptide substrate and 134 μM ATP solution in 1× assay buffer. The reaction was allowed to progress at ambient temperature for 90 min. The reaction was then stopped by the addition of 20 μL of TR-FRET Dilution Buffer (Life Technologies, Carlsbad, CA) containing 2 nM Tb-labeled anti-phospho LRRKtide® (LRRK2 phosphorylated ezrin/radixin/moesin (ERM)) antibody and 10 mM EDTA (Life Technologies, Carlsbad, CA). After an incubation period of 1 h at rt, the plate was read on an EnVision® multimode plate reader (Perkin Elmer, Waltham, MA) with an excitation wavelength of 337 nm (Laser) and a reading emission at both 520 and 495 nm. Compound IC50 values were interpolated from nonlinear regression best-fits of the log of the final compound concentration, plotted as a function of the 520/495-nm emission ratio using activity base “Abase”). Abase uses a 4 parameter (4P) logistic fit based on the Levenberg-Marquardt algorithm. […]", "values": [
      {"smiles": "COc1nn(CC2CC2(F)F)cc1NC(=O)c1csc(-c2cn[nH]c2)n1", "note": "(stereo not drawn) [Example 7-39, N-{1-[(2,2-difluorocyclopropyl)methyl]-3-methoxy-1H-pyrazol-4-yl}-2-(1H-pyrazol-4-yl)-1,3-thiazole-4-carboxamide]", "LRRK2 pIC50": 7.74},
      {"smiles": "COC(=O)c1nn(C)cc1NC(=O)c1csc(-c2cn[nH]c2)n1", "note": "[Example 1-19, methyl 1-methyl-4-({[2-(1H-pyrazol-4-yl)-1,3-thiazol-4-yl]carbonyl}amino)-1H-pyrazole-3-carboxylate]", "LRRK2 pIC50": 8.66},
      {"smiles": "O=C(Nc1cnn(C2CCC2)c1)c1csc(-c2ccccc2)n1", "note": "[Example 4-9, N-(1-cyclobutyl-1H-pyrazol-4-yl)-2-phenyl-1,3-thiazole-4-carboxamide]", "LRRK2 pIC50": 6.70},
      {"smiles": "CC(C1CC1)n1cc(NC(=O)c2csc(-c3cn[nH]c3)n2)c(C(F)F)n1", "note": "(stereo not drawn) [Example 3-1, N-(1-(1-Cyclopropylethyl)-3-(difluoromethyl)-1H-pyrazol-4-yl)-2-(1H-pyrazol-4-yl)thiazole-4-carboxamide]", "LRRK2 pIC50": 7.27},
      {"smiles": "O=C(Nc1cn(CC2CCC2)nc1C(F)F)c1csc(-c2cn[nH]c2)n1", "note": "[Example 7-11, N-[1-(cyclobutylmethyl)-3-(difluoromethyl)-1H-pyrazol-4-yl]-2-(1H-pyrazol-4-yl)-1,3-thiazole-4-carboxamide]", "LRRK2 pIC50": 7.55},
      {"smiles": "Cc1nn(C(C)C2CC2)cc1NC(=O)c1csc(-c2cn[nH]c2)n1", "note": "(single isomer, unassigned) [Example 2-3, (R)- or (S)-N-{1-[1-cyclopropylethyl]-3-methyl-1H-pyrazol-4-yl}-2-(1H-pyrazol-4-yl)-1,3-thiazole-4-carboxamide]", "LRRK2 pIC50": 6.99},
      {"smiles": "Cc1nn(C(C)C2CC2)cc1NC(=O)c1csc(-c2cn[nH]c2)n1", "note": "(single isomer, unassigned) [Example 2-4, (S)- or (R)-N-{1-[1-cyclopropylethyl]-3-methyl-1H-pyrazol-4-yl}-2-(1H-pyrazol-4-yl)-1,3-thiazole-4-carboxamide]", "LRRK2 pIC50": 6.82},
      {"smiles": "COc1nn(C2CCC2)cc1NC(=O)c1csc(-c2cn[nH]c2)n1", "note": "[Example 1-22, N-(1-cyclobutyl-3-methoxy-1H-pyrazol-4-yl)-2-(1H-pyrazol-4-yl)-1,3-thiazole-4-carboxamide]", "LRRK2 pIC50": 7.76},
      {"smiles": "O=C(Nc1cnn(CC2C3CCC2CNC3)c1)c1csc(-c2cn[nH]c2)n1", "note": "(stereo not drawn) [Example 7-43, N-{1-[(3-azabicyclo[3.2.1]octan-8-yl)methyl]-1H-pyrazol-4-yl}-2-(1H-pyrazol-4-yl)-1,3-thiazole-4-carboxamide]", "LRRK2 pIC50": 6.87},
      {"smiles": "O=C(Nc1cnn(CC2CC(F)(F)C2)c1)c1csc(-c2cn[nH]c2)n1", "note": "[Example 1-35, N-{1-[(3,3-difluorocyclobu-tyl)methyl]-1H-pyrazol-4-yl}-2-(1H-pyrazol-4-yl)-1,3-thiazole-4-carboxamide]", "LRRK2 pIC50": 7.77},
      {"smiles": "CN1CCN(CCCn2cc(NC(=O)c3csc(-c4cn[nH]c4)n3)cn2)CC1", "note": "[Example 7-34, N-{1-[3-(4-methylpiperazin-1-yl)propyl]-1H-pyrazol-4-yl}-2-(1H-pyrazol-4-yl)-1,3-thiazole-4-carboxamide]", "LRRK2 pIC50": 5.95},
      {"smiles": "O=C(Nc1cnn(CC2CCC2)c1)c1cccc(-c2cncnc2)n1", "note": "[Example 9-2, N-[1-(cyclobutylmethyl)-1H-pyrazol-4-yl]-6-pyrimidin-5-ylpyridine-2-carboxamide]", "LRRK2 pIC50": 5.74},
      {"smiles": "CC(C)c1cc(-n2cc(NC(=O)c3csc(-c4cn[nH]c4)n3)cn2)ccn1", "note": "[Example 8-3, N-{1-[2-(1-methylethyl)pyridin-4-yl]-1H-pyrazol-4-yl}-2-(1H-pyrazol-4-yl)-1,3-thiazole-4-carboxamide]", "LRRK2 pIC50": 7.89},
      {"smiles": "O=C(Nc1cnn(Cc2ccncc2)c1)c1csc(-c2cn[nH]c2)n1", "note": "[Example 7-24, 2-(1H-pyrazol-4-yl)-N-[1-(pyridin-4-ylmethyl)-1H-pyrazol-4-yl]-1,3-thiazole-4-carboxamide]", "LRRK2 pIC50": 7.30},
      {"smiles": "O=C(Nc1cn(C2CCC2)nc1C1CC1)c1csc(-c2cn[nH]c2)n1", "note": "[Example 3-2, N-(1-cyclobutyl-3-cyclopropyl-1H-pyrazol-4-yl)-2-(1H-pyrazol-4-yl)-1,3-thiazole-4-carboxamide]", "LRRK2 pIC50": 8.35},
      {"smiles": "O=C(Nc1cnn(CC2CCC2)c1)c1cccc(-c2ccoc2)n1", "note": "[Example 9-5, N-[1-(cyclobutylmethyl)-1H-pyrazol-4-yl]-6-furan-3-ylpyridine-2-carboxamide]", "LRRK2 pIC50": 5.79},
      {"smiles": "O=C(Nc1cnn(C[C@H]2CCNC2)c1)c1csc(-c2cn[nH]c2)n1", "note": "[Example 7-26, 2-(1H-pyrazol-4-yl)-N-(1-{[(3S)-pyrrolidin-3-yl]methyl}-1H-pyrazol-4-yl)-1,3-thiazole-4-carboxamide]", "LRRK2 pIC50": 6.84},
      {"smiles": "N#CC1(Cn2cc(NC(=O)c3csc(-c4cn[nH]c4)n3)cn2)CCNCC1", "note": "[Example 7-28, N-{1-[(4-cyanopiperidin-4-yl)methyl]-1H-pyrazol-4-yl}-2-(1H-pyrazol-4-yl)-1,3-thiazole-4-carboxamide]", "LRRK2 pIC50": 6.71},
      {"smiles": "O=C(Nc1cnn(CC2CC2)c1)c1csc(-c2cn[nH]c2)n1", "note": "[Example 7-38, N-[1-(cyclopropylmethyl)-1H-pyrazol-4-yl]-2-(1H-pyrazol-4-yl)-1,3-thiazole-4-carboxamide]", "LRRK2 pIC50": 8.02},
      {"smiles": "Cn1cc(NC(=O)c2csc(-c3cn[nH]c3)n2)c(-c2ccncc2)n1", "note": "[Example 1-9, N-(1-methyl-3-pyridin-4-yl-1H-pyrazol-4-yl)-2-(1H-pyrazol-4-yl)-1,3-thiazole-4-carboxamide]", "LRRK2 pIC50": 7.09},
      {"smiles": "O=C(Nc1cnn(C2CCC2)c1)c1csc(-c2cnn3c2CCC3)n1", "note": "[Example 9-3, N-(1-cyclobutyl-1H-pyrazol-4-yl)-2-(5,6-dihydro-4H-pyrrolo[1,2-b]pyrazol-3-yl)-1,3-thiazole-4-carboxamide]", "LRRK2 pIC50": 8.01},
      {"smiles": "O=C(Nc1cnn(C2CCC2)c1)c1csc(-c2cnn(C(F)F)c2)n1", "note": "[Example 9-17, N-(1-cyclobutyl-1H-pyrazol-4-yl)-2-[1-(difluoromethyl)-1H-pyrazol-4-yl]-1,3-thiazole-4-carboxamide]", "LRRK2 pIC50": 7.50},
      {"smiles": "CCOCCn1cc(NC(=O)c2csc(-c3cn[nH]c3)n2)c(C(F)F)n1", "note": "[Example 7-40, N-[3-(difluoromethyl)-1-(2-ethoxyethyl)-1H-pyrazol-4-yl]-2-(1H-pyrazol-4-yl)-1,3-thiazole-4-carboxamide]", "LRRK2 pIC50": 6.97},
      {"smiles": "O=C(Nc1cnn(CC2CCC2)c1)c1cccc(-c2cccnc2)n1", "note": "[Example 9-34, N-[1-(cyclobutylmethyl)-1H-pyrazol-4-yl]-2,3′-bipyridine-6-carboxamide]", "LRRK2 pIC50": 6.90},
      {"smiles": "COc1nn(CC(F)(F)F)cc1NC(=O)c1csc(-c2cnn(C)c2)n1", "note": "[Example 12-6, N-[3-methoxy-1-(2,2,2-trifluoroethyl)-1H-pyrazol-4-yl]-2-(1-methyl-1H-pyrazol-4-yl)-1,3-thiazole-4-carboxamide]", "LRRK2 pIC50": 7.06},
      {"smiles": "CC(C)Cn1cc(NC(=O)c2csc(-c3cn[nH]c3)n2)c(C(F)F)n1", "note": "[Example 7-23, N-[3-(difluoromethyl)-1-(2-methylpropyl)-1H-pyrazol-4-yl]-2-(1H-pyrazol-4-yl)-1,3-thiazole-4-carboxamide]", "LRRK2 pIC50": 7.59}
    ]},
    {"target": "GST tagged truncated human mutant G2019S LRRK2 (Homo sapiens (Human), UniProt Q5S007, G2019S)", "experiment": "LRRK2 Km ATP LanthaScreen Assay", "assay_type": "biochemical", "settings": "134 μM ATP (Km ATP), LRRKtide substrate, negative log of mean IC50 (molar), read-out: LRRK2 pIC50 (converted)", "experimental": "as §1, §2, §3", "units": {"IC50": "nM"}, "values": [
      {"smiles": "CC(C1CC1)n1cc(NC(=O)c2csc(-c3cn[nH]c3)n2)cn1", "note": "(single isomer, unassigned) [Example 2-2, (S)- or (R)—N-(1-(1-cyclopropylethyl)-1H-pyrazol-4-yl)-2-(1H-pyrazol-4-yl)thiazole-4-carboxamide]", "IC50": 38}
    ]}
  ]
}
